Our source for the IC50 values is patent US8530487B1 (priority 2009, dated 2013).

The target in the first test is human TRPA1 (Homo sapiens, UniProt O75762). Briefly: cell-based.
human TRPA1, sequence (O75762 whole entry): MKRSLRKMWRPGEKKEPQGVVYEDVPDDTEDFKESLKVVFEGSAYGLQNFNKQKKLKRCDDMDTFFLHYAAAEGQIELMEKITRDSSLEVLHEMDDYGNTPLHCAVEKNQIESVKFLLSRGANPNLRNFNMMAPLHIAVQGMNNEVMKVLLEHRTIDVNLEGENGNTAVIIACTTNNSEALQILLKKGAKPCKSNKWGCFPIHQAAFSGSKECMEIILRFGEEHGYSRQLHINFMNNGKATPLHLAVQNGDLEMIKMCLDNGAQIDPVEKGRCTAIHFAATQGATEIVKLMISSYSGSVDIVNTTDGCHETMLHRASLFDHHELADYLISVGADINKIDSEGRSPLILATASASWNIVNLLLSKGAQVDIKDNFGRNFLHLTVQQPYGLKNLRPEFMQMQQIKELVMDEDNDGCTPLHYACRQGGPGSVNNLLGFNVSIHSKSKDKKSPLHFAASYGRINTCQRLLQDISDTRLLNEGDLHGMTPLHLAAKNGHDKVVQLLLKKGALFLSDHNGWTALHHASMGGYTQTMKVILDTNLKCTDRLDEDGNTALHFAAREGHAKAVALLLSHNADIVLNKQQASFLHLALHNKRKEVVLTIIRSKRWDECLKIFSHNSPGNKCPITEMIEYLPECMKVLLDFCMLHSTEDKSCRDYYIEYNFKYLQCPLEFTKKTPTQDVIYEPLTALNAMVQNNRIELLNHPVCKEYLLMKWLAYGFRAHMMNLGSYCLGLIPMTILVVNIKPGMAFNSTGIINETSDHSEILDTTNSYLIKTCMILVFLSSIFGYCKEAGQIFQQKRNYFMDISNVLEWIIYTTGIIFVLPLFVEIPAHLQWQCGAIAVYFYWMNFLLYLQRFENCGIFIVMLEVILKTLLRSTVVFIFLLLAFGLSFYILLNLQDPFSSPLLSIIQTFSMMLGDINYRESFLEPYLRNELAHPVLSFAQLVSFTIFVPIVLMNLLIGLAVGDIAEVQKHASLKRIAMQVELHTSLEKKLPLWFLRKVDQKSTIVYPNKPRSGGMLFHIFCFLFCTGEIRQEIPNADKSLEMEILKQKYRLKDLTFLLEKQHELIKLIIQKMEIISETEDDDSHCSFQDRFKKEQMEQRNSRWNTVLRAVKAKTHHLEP
Conditions: not given
Regarding `N#Cc1ccc(C2NC(=S)NC3=C2C(=O)c2ccccc23)cc1` (stereo not shown) [Compound 35], the IC50 was 500 to 1000 nM.
On the same count and under the same terms, to `O=C1C2=C(NC(=S)NC2c2ccccc2)c2ccccc21` (stereo not shown) [Compound 201] belongs < 100 nM.
`COc1cccc(C2NC(=O)NC3=C2C(=O)c2ccccc23)c1` (stereo not shown) [Compound 621] returned a concentration for half-maximal inhibition (IC50) of 500 to 1000 nM.
In the case of `COc1ccccc1C1NC(=S)NC2=C1C(=O)c1ccccc12` (stereo not shown) [Compound 40], the IC50 is > 1000 nM.

The same test, now with this note: read-out: Activity (IC50).
Turning to `N#CN=C1NC2=C(C(=O)c3ccccc32)C(c2cccc(OCC3CC3)c2)N1` (stereo not shown) [Compound 951], the IC50 is > 1000 nM.
Take `COc1ccc(OC)c(C2NC(=O)NC3=C2C(=O)c2ccccc23)c1` (stereo not shown) [Compound 441]: the IC50 was > 1000 nM.
Turning to `CCOc1cncc(C2NC(=O)NC3=C2C(=O)c2ccccc23)c1` (stereo not shown) [Compound 503], the IC50 is > 1000 nM.
As to `O=C1NC2=C(C(=O)c3ccccc32)C(c2ccccc2F)N1` (stereo not shown) [Compound 447], the IC50 was > 1000 nM.
For the molecule `C=CCOc1cccc(C2NC(=S)NC3=C2C(=O)c2ccccc23)c1` (stereo not shown) [Compound 305], the IC50 was < 100 nM.
As to `C=CCOc1cccc(C2NC(=O)NC3=C2C(=O)c2ccccc23)c1Cl` (stereo not shown) [Compound 640], the IC50 was < 100 nM.
On the same count and under the same terms, to `CCOc1cccc(C2NC(=O)N(Cc3cccnc3)C3=C2C(=O)c2ccccc23)c1` (stereo not shown) [Compound 612] belongs 100 to 500 nM; to `CCCSc1cccc(C2NC(=O)NC3=C2C(=O)c2cccnc23)c1` (stereo not shown) [Compound 906], 100 to 500 nM; to `C=CCOc1cccc(C2NC(=O)NC3=C2C(=O)c2ccccc23)c1C(F)(F)F` (stereo not shown) [Compound 642], > 1000 nM.
Turning to `CN1C(=S)NC(c2ccccc2)C2=C1c1ccccc1C2=O` (stereo not shown) [Compound 302], the IC50 was < 100 nM.
Turning to `N#CN=C1NC2=C(C(=O)c3ccccc32)C(c2ccccc2)N1` (stereo not shown) [Compound 956], the IC50 is > 1000 nM.
On the same count and under the same terms, with `O=C1NC2=C(C(=O)c3ccccc32)C(c2cccc(OCC3CC3)c2)N1` (stereo not shown) [Compound 422] the figure was 100 to 500 nM; with `O=C1NC2=C(C(=O)c3ccccc32)C(c2cccc(Cl)c2)N1` (stereo not shown) [Compound 431], > 1000 nM; with `CCOc1cccc(C2NC(=O)N(CC)C3=C2C(=O)c2ccccc23)c1` (stereo not shown) [Compound 604], < 100 nM.
On to `COc1cccc(C2NC(=O)NC3=C2C(=O)c2ccccc23)c1OC` (stereo not shown) [Compound 438], for which the concentration for half-maximal inhibition (IC50) was > 1000 nM.
On the same count and under the same terms, with `CCCCOc1cccc(C2NC(=O)NC3=C2C(=O)c2ccccc23)c1` (stereo not shown) [Compound 408] the figure was < 100 nM; with `O=C1NC2=C(C(=O)c3ccccc32)C(c2cccc(OCC(F)(F)F)c2)N1` (stereo not shown) [Compound 413], 100 to 500 nM; with `C=CCOc1cccc(C2NC(=O)N(C)C3=C2C(=O)c2ccccc23)c1C(F)(F)F` (stereo not shown) [Compound 643], > 1000 nM.
As to `C=CCN1C(=O)NC(c2cccc(OCC)c2)C2=C1c1ccccc1C2=O` (stereo not shown) [Compound 614], the IC50 fell in the range of 100 to 500 nM.
Consider `Cc1ccc2c(c1)C(=O)C1=C2NC(=O)NC1c1cc(O)ccc1Br` (stereo not shown) [Compound 107], for which the IC50 was in the range of 500 to 1000 nM.
The same measure, in the same setting: to `O=C1NC2=C(C(=O)c3ccccc32)C(c2ccccc2O)N1` (stereo not shown) [Compound 435] belongs > 1000 nM.
As to `CN1C(=NC#N)NC2=C(C(=O)c3c(Cl)cccc32)C1c1cccc(OCC2CC2)c1` (stereo not shown) [Compound 953], the IC50 was > 1000 nM.
For the molecule `O=C1NC2=C(C(=O)c3ccccc32)C(c2cccc(OC(=O)C3CC3)c2)N1` (stereo not shown) [Compound 459], the IC50 is > 1000 nM.
Regarding `N#CCN1C(=O)NC(c2cccc(OC(F)F)c2)C2=C1c1ccccc1C2=O` (stereo not shown) [Compound 618], the IC50 is < 100 nM.
On the same count and under the same terms, with `CCCOc1cccc(C2NC(=O)NC3=C2C(=O)c2ccccc23)c1` (stereo not shown) [Compound 407] the figure was < 100 nM.
Take `C=CCOc1cccc(C2NC(=O)N(CC(=O)OCC)C3=C2C(=O)c2ccccc23)c1` (stereo not shown) [Compound 631]: the IC50 is < 100 nM.
Same read-out and setting: to `CCCOc1cccc(C2NC(=O)NC3=C2C(=O)c2cccnc23)c1` (stereo not shown) [Compound 904] belongs < 100 nM; to `CCCOc1cccc(C2NC(=O)N(CC#N)C3=C2C(=O)c2ccccc23)c1` (stereo not shown) [Compound 615], < 100 nM; to `C=CCOc1ccc(Cl)c(C2NC(=O)NC3=C2C(=O)c2ccccc23)c1` (stereo not shown) [Compound 637], 100 to 500 nM.
Still for that read-out and setting: to `O=C1NC2=C(C(=O)c3ccccc32)C(c2cccc3c2OCO3)N1` (stereo not shown) [Compound 439] belongs > 1000 nM; to `CCCC(O)c1cccc(C2NC(=O)NC3=C2C(=O)c2cccnc23)c1` (stereo not shown) [Compound 908], 100 to 500 nM.
On the same count and under the same terms, with `O=C1NC2=C(C(=O)c3ccccc32)C(c2cccc(OCC3CC3)c2Cl)N1` (stereo not shown) [Compound 419] the figure was 100 to 500 nM; with `CCCOc1cc(F)cc(C2NC(=O)NC3=C2C(=O)c2ccccc23)c1F` (stereo not shown) [Compound 404], < 100 nM.
Regarding `CCCC(=O)c1cccc(C2NC(=O)NC3=C2C(=O)c2cccnc23)c1` (stereo not shown) [Compound 909], the IC50 lay within 100 to 500 nM.
Regarding `CN1C(=O)NC(c2cccc(OCC3CC3)c2)C2=C1c1ccccc1C2=O` (stereo not shown) [Compound 641], the IC50 fell in the range of 100 to 500 nM.
`CCCOc1cccc(C2NC(=NC#N)NC3=C2C(=O)c2ccccc23)c1` (stereo not shown) [Compound 960]: the 50% inhibitory concentration (IC50) is > 1000 nM.
In the case of `N#Cc1cccc(C2NC(=S)NC3=C2C(=O)c2ccccc23)c1` (stereo not shown) [Compound 307], the IC50 was < 100 nM.
On the same count and under the same terms, to `CCOc1cccc(C2NC(=O)NC3=C2C(=O)c2cccnc23)c1F` (stereo not shown) [Compound 901] belongs 100 to 500 nM; to `CC(F)(F)Oc1cccc(C2NC(=O)NC3=C2C(=O)c2ccccc23)c1` (stereo not shown) [Compound 450], > 1000 nM.
For `O=C1NC2=C(C(=O)c3cc(Cl)ccc32)C(c2cc(O)ccc2Br)N1` (stereo not shown) [Compound 103], the IC50 was > 1000 nM.
On the same count and under the same terms, to `Nc1cccc(C2NC(=O)NC3=C2C(=O)c2ccccc23)c1` (stereo not shown) [Compound 444] belongs > 1000 nM.
For `O=C1NC2=C(C(=O)c3ccccc32)C(c2ccc3c(c2)OCO3)N1` (stereo not shown) [Compound 457], the IC50 is > 1000 nM.
On the same count and under the same terms, with `CCn1c(=O)oc2c(C3NC(=O)NC4=C3C(=O)c3ccccc34)cccc21` (stereo not shown) [Compound 506] the figure was > 1000 nM; with `COc1ccc(Cl)c(C2NC(=O)NC3=C2C(=O)c2ccccc23)c1` (stereo not shown) [Compound 429], > 1000 nM; with `COCCOc1cccc(C2NC(=O)NC3=C2C(=O)c2ccccc23)c1` (stereo not shown) [Compound 462], 100 to 500 nM.
On the same count and under the same terms, to `COc1cccc(C2NC(=O)N(C)C3=C2C(=O)c2ccccc23)c1` (stereo not shown) [Compound 622] belongs 100 to 500 nM.
Still for that read-out and setting: to `COCCN1C(=O)NC(c2cccc(OC)c2)C2=C1c1ccccc1C2=O` (stereo not shown) [Compound 627] belongs 100 to 500 nM.
As for `CCCOc1ccc(F)c(C2NC(=O)NC3=C2C(=O)c2cccnc23)c1F` (stereo not shown) [Compound 912], the IC50 is < 100 nM.
`CCOc1cccc(C2NC(=O)N(Cc3ccncc3)C3=C2C(=O)c2ccccc23)c1` (stereo not shown) [Compound 613]: the IC50 is > 1000 nM.
Same read-out and setting: to `C=CCOc1ccc(Cl)c(C2NC(=O)N(C)C3=C2C(=O)c2ccccc23)c1` (stereo not shown) [Compound 638] belongs < 100 nM.
Same read-out and setting: with `O=C1C2=C(NC(=S)NC2c2ccccc2)c2ccccc21` (stereo not shown) [Compound 301] the figure was < 100 nM.
Regarding `CCCCc1cccc(C2NC(=O)NC3=C2C(=O)c2ccccc23)c1` (stereo not shown) [Compound 427], the IC50 fell in the range of 500 to 1000 nM.
As for `O=C1NC2=C(C(=O)c3ccccc32)C(c2cccc(O)c2)N1` (stereo not shown) [Compound 436], the IC50 was > 1000 nM.
For `N#CN=C1NC2=C(C(=O)c3ccccc32)C(c2cccc(OCC3CC3)c2Cl)N1` (stereo not shown) [Compound 957], the IC50 is > 1000 nM.
For `C=CCOc1cc(F)cc(C2NC(=O)NC3=C2C(=O)c2ccccc23)c1` (stereo not shown) [Compound 403], the IC50 is < 100 nM.
The same measure, in the same setting: with `CCOc1cccc(C2NC(=O)N(CC(=O)OC(C)(C)C)C3=C2C(=O)c2ccccc23)c1` (stereo not shown) [Compound 609] the figure was 500 to 1000 nM.
Regarding `COc1cccc(C2NC(=O)N(Cc3ccccc3)C3=C2C(=O)c2ccccc23)c1` (stereo not shown) [Compound 625], the IC50 fell in the range of 100 to 500 nM.
Still for that read-out and setting: with `CCOc1cccc(C2NC(=O)NC3=C2C(=O)c2ccccc23)c1` (stereo not shown) [Compound 412] the figure was 100 to 500 nM; with `O=C1NC2=C(C(=O)c3ccccc32)C(c2cccnc2)N1` (stereo not shown) [Compound 501], > 1000 nM.
Still for that read-out and setting: with `CCCC(F)c1cccc(C2NC(=O)NC3=C2C(=O)c2cccnc23)c1` (stereo not shown) [Compound 907] the figure was < 100 nM; with `C=CCOc1cccc(C2NC(=O)NC3=C2C(=O)c2ccccc23)c1C` (stereo not shown) [Compound 421], 100 to 500 nM; with `CCOc1ccc(F)c(C2NC(=O)NC3=C2C(=O)c2ccccc23)c1F` (stereo not shown) [Compound 420], 100 to 500 nM.
For `N#CN=C1NC2=C(C(=O)c3ccccc32)C(c2cccc(OCC3CCC3)c2)N1` (stereo not shown) [Compound 958], the IC50 was > 1000 nM.
Still for that read-out and setting: with `O=C1NC2=C(C(=O)c3ccccc32)C(c2cccc(OC(F)(F)C(F)F)c2)N1` (stereo not shown) [Compound 451] the figure was > 1000 nM.
The same measure, in the same setting: with `C=CCOc1cccc(C2NC(=O)N(Cc3ccncc3)C3=C2C(=O)c2ccccc23)c1` (stereo not shown) [Compound 635] the figure was > 1000 nM; with `CCOc1cccc(C2NC(=O)N(CC(F)(F)F)C3=C2C(=O)c2ccccc23)c1` (stereo not shown) [Compound 605], 500 to 1000 nM; with `COc1cccc(C2NC(=O)N(CCO)C3=C2C(=O)c2ccccc23)c1` (stereo not shown) [Compound 626], > 1000 nM.
As to `CCOc1cccc(C2NC(=O)N(CC(=O)O)C3=C2C(=O)c2ccccc23)c1` (stereo not shown) [Compound 610], the IC50 was > 1000 nM.
Still for that read-out and setting: to `O=C1NC2=C(C(=O)c3ccccc32)C(c2cccc(OCC3CCC3)c2)N1` (stereo not shown) [Compound 461] belongs > 1000 nM.
For `CCOc1cccc(C2NC(=O)NC3=C2C(=O)c2ccccc23)c1F` (stereo not shown) [Compound 616], the IC50 is < 100 nM.
Turning to `C=CCC(F)c1cccc(C2NC(=O)NC3=C2C(=O)c2cccnc23)c1` (stereo not shown) [Compound 905], the IC50 was < 100 nM.
In the case of `O=C1NC2=C(C(=O)c3ccccc32)C(c2cccc(Cl)c2Cl)N1` (stereo not shown) [Compound 446], the IC50 was > 1000 nM.
Same read-out and setting: with `CCC[S+]([O-])c1cccc(C2NC(=O)NC3=C2C(=O)c2cccnc23)c1` (stereo not shown) [Compound 910] the figure was > 1000 nM; with `CN1C(=NC#N)NC2=C(C(=O)c3ccccc32)C1c1cccc(OCC2CC2)c1` (stereo not shown) [Compound 952], > 1000 nM; with `CCN(C(C)=O)c1cccc(C2NC(=O)NC3=C2C(=O)c2ccccc23)c1` (stereo not shown) [Compound 443], > 1000 nM.
